Data from patent publication US20240132484A1, “BROAD SPECTRUM ANTIVIRAL COMPOUNDS TARGETING THE SKI COMPLEX” (priority 2020, published 2024).
Several values for one entry are separate records, joined by “and”; a condition that tells them apart may be missing. Equal values may be shown once. Read-outs that look alike come from different tables or passages of the source.

Experiments:
cells (nuclei count) = conditions: for Relative cell count to DMSO controls, Average 1 μM / Relative cell count to DMSO controls, Average 5 μM / Relative cell count to DMSO controls, Average 10 μM / Relative cell count to DMSO controls, Average 25 μM / Relative cell count to DMSO controls, Average 50 μM: toxicity data, 100=DMSO control; for Relative cell count to DMSO controls, Average (for correlation analysis): average value over the 5 tested concentrations (1 to 50 uM)
SARS2 = type: cell-based, SARS-CoV-2; conditions: for Percentage Inhibition Average 1 μM / Screening data (Relative infection to DMSO controls) Average 1 μM: SARS2, 1 μM; for Screening data (Relative infection to DMSO controls) Average 1 μM / Screening data (Relative infection to DMSO controls) Average 5 μM / Screening data (Relative infection to DMSO controls) Average 10 μM / Screening data (Relative infection to DMSO controls) Average 25 μM / Screening data (Relative infection to DMSO controls) Average 50 μM / Average (relative infection to DMSO over the 5 tested concentrations): 100=DMSO control; for Percentage Inhibition Average 5 μM / Screening data (Relative infection to DMSO controls) Average 5 μM: SARS2, 5 μM; for Percentage Inhibition Average 10 μM / Screening data (Relative infection to DMSO controls) Average 10 μM: SARS2, 10 μM; for Percentage Inhibition Average 25 μM / Screening data (Relative infection to DMSO controls) Average 25 μM: SARS2, 25 μM; for Percentage Inhibition Average 50 μM / Screening data (Relative infection to DMSO controls) Average 50 μM: SARS2, 50 μM; for Average (relative infection to DMSO over the 5 tested concentrations): SARS2, average over 1 to 50 uM
[1] = average of Exp 1-3 (SMW475, SMW477, SMW478), n 9, 1 uM
[2] = average of Exp 1-3 (SMW475, SMW477, SMW478), n 9, 5 uM
[3] = average of Exp 1-3 (SMW475, SMW477, SMW478), n 9, 10 uM
[4] = average of Exp 1-3 (SMW475, SMW477, SMW478), n 9, 25 uM
[5] = average of Exp 1-3 (SMW475, SMW477, SMW478), n 9, 50 uM

## CCN(CC)CCN(Cc1ccccn1)Cc1ccc(C)o1 [SILCS36]
Cells (nuclei count)
  Relative cell count to DMSO controls, Average 1 μM: 87.6
  Relative cell count to DMSO controls, Average 5 μM: 84.91
  Relative cell count to DMSO controls, Average 10 μM: 88.15
  Relative cell count to DMSO controls, Average 25 μM: 91.83
  Relative cell count to DMSO controls, Average 50 μM: 63.21
  Relative cell count to DMSO controls, Average (for correlation analysis): 83.14
Cells (nuclei count); [1]
  Toxicity Data, Average, Mean: 87.60%
Cells (nuclei count); [2]
  Toxicity Data, Average, Mean: 84.91%
Cells (nuclei count); [3]
  Toxicity Data, Average, Mean: 88.15%
Cells (nuclei count); [4]
  Toxicity Data, Average, Mean: 91.83%
Cells (nuclei count); [5]
  Toxicity Data, Average, Mean: 63.21%
SARS2; Exp 1 (SMW475), 1 uM, Greiner Celigo plates
  Percentage Infection Relative to Appropriate DMSO Control with Avg Background Subtraction: 112.32% and 102.95% and 77.60%
SARS2; Exp 1 (SMW475), 5 uM, Greiner Celigo plates
  Percentage Infection Relative to Appropriate DMSO Control with Avg Background Subtraction: 103.78% and 96.97% and 70.88%
SARS2; Exp 1 (SMW475), 10 uM, Greiner Celigo plates
  Percentage Infection Relative to Appropriate DMSO Control with Avg Background Subtraction: 100.05% and 88.33% and 67.06%
SARS2; Exp 1 (SMW475), 25 uM, Greiner Celigo plates
  Percentage Infection Relative to Appropriate DMSO Control with Avg Background Subtraction: 42.48% and 40.16% and 33.52%
SARS2; Exp 2 (SMW477), 1 uM, Greiner Celigo plates
  Percentage Infection Relative to Appropriate DMSO Control with Avg Background Subtraction: 136.49% and 133.25% and 131.77%
SARS2; Exp 2 (SMW477), 5 uM, Greiner Celigo plates
  Percentage Infection Relative to Appropriate DMSO Control with Avg Background Subtraction: 140.43% and 143.68% and 122.53%
SARS2; Exp 2 (SMW477), 10 uM, Greiner Celigo plates
  Percentage Infection Relative to Appropriate DMSO Control with Avg Background Subtraction: 111.26% and 112.57% and 100.88%
SARS2; Exp 2 (SMW477), 25 uM, Greiner Celigo plates
  Percentage Infection Relative to Appropriate DMSO Control with Avg Background Subtraction: 70.58% and 67.21% and 40.18%
SARS2; Exp 3 (SMW478), 1 uM, Greiner Celigo plates
  Percentage Infection Relative to Appropriate DMSO Control with Avg Background Subtraction: 116.69% and 121.41% and 101.10%
SARS2; Exp 3 (SMW478), 5 uM, Greiner Celigo plates
  Percentage Infection Relative to Appropriate DMSO Control with Avg Background Subtraction: 103.27% and 118.27% and 106.75%
SARS2; Exp 3 (SMW478), 10 uM, Greiner Celigo plates
  Percentage Infection Relative to Appropriate DMSO Control with Avg Background Subtraction: 99.80% and 128.16% and 117.51%
SARS2
  Percentage Inhibition Average 1 μM: −14.84%
  Screening data (Relative infection to DMSO controls) Average 1 μM: 114.84
  Percentage Inhibition Average 5 μM: −11.84%
  Screening data (Relative infection to DMSO controls) Average 5 μM: 111.84
  Percentage Inhibition Average 10 μM: −2.85%
  Screening data (Relative infection to DMSO controls) Average 10 μM: 102.85
  Percentage Inhibition Average 25 μM: 42.56%
  Screening data (Relative infection to DMSO controls) Average 25 μM: 57.44
  Percentage Inhibition Average 50 μM: 72.63%
  Screening data (Relative infection to DMSO controls) Average 50 μM: 27.37
  Average (relative infection to DMSO over the 5 tested concentrations): 82.87
SARS2; [1]
  Infection Data, Average, Mean: 114.84%
SARS2; [2]
  Infection Data, Average, Mean: 111.84%
SARS2; [3]
  Infection Data, Average, Mean: 102.85%
SARS2; [4]
  Infection Data, Average, Mean: 57.44%
SARS2; [5]
  Infection Data, Average, Mean: 27.37%

## Cc1cc(CN(CCN(C)C)Cc2ccsc2)oc1C [SILCS27]
Cells (nuclei count)
  Relative cell count to DMSO controls, Average 1 μM: 109.07
  Relative cell count to DMSO controls, Average 5 μM: 120.66
  Relative cell count to DMSO controls, Average 10 μM: 120.18
  Relative cell count to DMSO controls, Average 25 μM: 103.23
  Relative cell count to DMSO controls, Average 50 μM: 86.33
  Relative cell count to DMSO controls, Average (for correlation analysis): 107.89
Cells (nuclei count); Average of Exp 1-3, n 9, 1 uM
  Toxicity Data, Average, Mean: 109.07%
Cells (nuclei count); Average of Exp 1-3, n 9, 5 uM
  Toxicity Data, Average, Mean: 120.66%
Cells (nuclei count); Average of Exp 1-3, n 9, 10 uM
  Toxicity Data, Average, Mean: 120.18%
Cells (nuclei count); Average of Exp 1-3, n 9, 25 uM
  Toxicity Data, Average, Mean: 103.23%
Cells (nuclei count); Average of Exp 1-3, n 9, 50 uM
  Toxicity Data, Average, Mean: 86.33%
SARS2; Average of Exp 1-3, n 9, 1 uM
  Infection Data, Average, Mean: 101.69%
SARS2; Average of Exp 1-3, n 9, 5 uM
  Infection Data, Average, Mean: 91.50%
SARS2; Average of Exp 1-3, n 9, 10 uM
  Infection Data, Average, Mean: 93.59%
SARS2; Average of Exp 1-3, n 9, 25 uM
  Infection Data, Average, Mean: 67.45%
SARS2; Average of Exp 1-3, n 9, 50 uM
  Infection Data, Average, Mean: 20.11%
SARS2; Exp 1 (SMW475), 1 uM, single well
  Percentage Infection Relative to Appropriate DMSO Control with Avg Background Subtraction: 107.33% and 128.47% and 95.32%
SARS2; Exp 1 (SMW475), 5 uM, single well
  Percentage Infection Relative to Appropriate DMSO Control with Avg Background Subtraction: 113.52% and 118.94% and 106.69%
SARS2; Exp 1 (SMW475), 10 uM, single well
  Percentage Infection Relative to Appropriate DMSO Control with Avg Background Subtraction: 137.00% and 134.73% and 122.43%
SARS2; Exp 1 (SMW475), 25 uM, single well
  Percentage Infection Relative to Appropriate DMSO Control with Avg Background Subtraction: 63.59% and 56.84% and 58.04%
SARS2; Exp 1 (SMW475), 50 uM, single well
  Percentage Infection Relative to Appropriate DMSO Control with Avg Background Subtraction: 15.03% and 16.97% and 13.28%
SARS2; Exp 2 (SMW477), 1 uM, single well
  Percentage Infection Relative to Appropriate DMSO Control with Avg Background Subtraction: 100.41% and 105.41% and 110.54%
SARS2; Exp 2 (SMW477), 5 uM, single well
  Percentage Infection Relative to Appropriate DMSO Control with Avg Background Subtraction: 92.70% and 91.91% and 94.77%
SARS2; Exp 2 (SMW477), 10 uM, single well
  Percentage Infection Relative to Appropriate DMSO Control with Avg Background Subtraction: 76.80% and 77.09% and 89.00%
SARS2; Exp 2 (SMW477), 25 uM, single well
  Percentage Infection Relative to Appropriate DMSO Control with Avg Background Subtraction: 62.89% and 48.77% and 73.05%
SARS2; Exp 2 (SMW477), 50 uM, single well
  Percentage Infection Relative to Appropriate DMSO Control with Avg Background Subtraction: 26.32% and 19.89% and 21.80%
SARS2; Exp 3 (SMW478), 1 uM, single well
  Percentage Infection Relative to Appropriate DMSO Control with Avg Background Subtraction: 87.75% and 89.34% and 90.68%
SARS2; Exp 3 (SMW478), 5 uM, single well
  Percentage Infection Relative to Appropriate DMSO Control with Avg Background Subtraction: 79.11% and 61.06% and 64.83%
SARS2; Exp 3 (SMW478), 10 uM, single well
  Percentage Infection Relative to Appropriate DMSO Control with Avg Background Subtraction: 89.71% and 51.99% and 63.55%
SARS2; Exp 3 (SMW478), 25 uM, single well
  Percentage Infection Relative to Appropriate DMSO Control with Avg Background Subtraction: 80.23% and 76.86% and 86.74%
SARS2; Exp 3 (SMW478), 50 uM, single well
  Percentage Infection Relative to Appropriate DMSO Control with Avg Background Subtraction: 18.61% and 22.87% and 26.23%
SARS2
  Percentage Inhibition Average 1 μM: −1.69%
  Screening data (Relative infection to DMSO controls) Average 1 μM: 101.69
  Percentage Inhibition Average 5 μM: 8.50%
  Screening data (Relative infection to DMSO controls) Average 5 μM: 91.50
  Percentage Inhibition Average 10 μM: 6.41%
  Screening data (Relative infection to DMSO controls) Average 10 μM: 93.59
  Percentage Inhibition Average 25 μM: 32.55%
  Screening data (Relative infection to DMSO controls) Average 25 μM: 67.45
  Percentage Inhibition Average 50 μM: 79.89%
  Screening data (Relative infection to DMSO controls) Average 50 μM: 20.11
  Average (relative infection to DMSO over the 5 tested concentrations): 74.87
